Measurements from US20250366474A1, “USE OF 4,5-DIMETHYLTHIAZOLE IN PROMOTING PLANT GROWTH” (HUAZHONG AGRICULTURAL UNIVERSITY, priority 2024, published 2025).

What was measured:
rice seedlings [1] = experiment: 4,5-dimethylthiazole seed soaking: rice seedling dry matter mass and chlorophyll content; assay type: in vivo, rice (Heliangyou 332); settings: for Root System Biomass / Shoot Part Biomass / Total Biomass / Total Chlorophyll Content: 30 days of seedling cultivation; for Total Chlorophyll Content: leaves; for Root System Relative Value / Shoot Part Relative Value / Total Chlorophyll Content Relative Value / Total Relative Value: 30 days, vs distilled water soaking
Procedure: 4,5-dimethylthiazole of different weights were dissolved in distilled water to obtain seed soaking agents. Taking seed soaking with distilled water as a control, four seed soaking concentrations (0, 50, 100 and 200 mg/L) were set. Plump and healthy rice seeds (Heliangyou 332) were selected and sterilized with 0.5% sodium hypochlorite for 30 min, and then each seed soaking agent was added in a mass ratio of the seed soaking agent to seed of 1:20. The seeds were soaked in darkness under 28-30° C. condition for 48 h until radicle emergence. The seed soaking solutions were changed every 12 h. Rice substrate soil was loaded 2 cm away from a seedling tray opening, gently compacted, and watered with pure water to be wet. A rice seedling nursery substrate was “rice seedling nursery substrate” purchased from Guangzhou Shengsheng Agriculture Co., Ltd., with main ingredients including peat, vermiculite and yellow mud. Two seeds were sowed in each hole on a substrate surface, covered with the substrate soil again to the seedling tray opening, and watered to be wet. After 30 days of seedling cultivation, nine rice samples were taken from each treatment, divided into shoot parts and root system, which were dried and then weighed; and leaves were taken from another nine rice plants to measure chlorophyll content. […] Regarding the biomass of the shoot parts and the chlorophyll content, the seed soaking concentration 50 mg/L rendered the best effect (Table 2).

rice seedlings [2] = experiment: 4,5-dimethylthiazole root drenching: rice seedling dry matter mass and chlorophyll content; assay type: in vivo; settings: for Root System Biomass / Shoot Part Biomass / Total Biomass / Total Chlorophyll Content: 30 days of seedling cultivation; for Total Chlorophyll Content: leaves; for Root System Relative Value / Shoot Part Relative Value / Total Chlorophyll Content Relative Value / Total Relative Value: 30 days, vs Control 0 mg/L
Procedure: Five root irrigation solution concentrations (0, 20, 50, 100 and 200 mg/L) and three types of root drenching frequency (2, 4, and 6 times) were set. 4,5-dimethylthiazole of different mass was dissolved in distilled water to obtain root irrigation solutions at different concentrations. After normal rice seed soaking and accelerated germination, rice substrate soil was loaded 2 cm away from a seedling tray opening, gently compacted, and watered with pure water to be wet. A rice seedling nursery substrate was “rice seedling nursery substrate” purchased from Guangzhou Shengsheng Agriculture Co., Ltd., with main ingredients including peat, vermiculite and yellow mud. Two seeds were sowed in each hole on a substrate surface, covered with the substrate soil again to the seedling tray opening, and watered to be wet. Three days after the rice seedling emergence, the root irrigation solutions at different concentrations was applied once every five days, until there was a water layer of 5 mm on a surface of the substrate. Each treatment was applied with a consistent amount. The drenching was conducted during cooler evening hours to minimize evaporation. After 30 days of seedling cultivation, nine rice samples were taken from each treatment, divided into shoot parts and root system, which were dried and then weighed; and leaves were taken from another nine rice plants to measure chlorophyll content.

[3] = root drenching 2 Times, 20 mg/L
[4] = root drenching 2 Times, 50 mg/L
[5] = root drenching 2 Times, 100 mg/L
[6] = root drenching 2 Times, 200 mg/L
[7] = root drenching 4 Times, 20 mg/L
[8] = root drenching 4 Times, 50 mg/L
[9] = root drenching 4 Times, 100 mg/L
[10] = root drenching 4 Times, 200 mg/L
[11] = root drenching 6 Times, 20 mg/L
[12] = root drenching 6 Times, 50 mg/L
[13] = root drenching 6 Times, 100 mg/L
[14] = root drenching 6 Times, 200 mg/L

For `Cc1ncsc1C` [4,5-dimethylthiazole], the “Root System Biomass” value (rice seedlings [1]; seed soaking 50 mg/L) was 8.3 mg/plant, the “Shoot Part Biomass” value (rice seedlings [1]; seed soaking 50 mg/L) was 80.7 mg/plant and the “Total Biomass” value (rice seedlings [1]; seed soaking 50 mg/L) was 89.1 mg/plant. The “Total Chlorophyll Content” value (rice seedlings [1]; seed soaking 50 mg/L) was 4.08 mg/g, the “Root System Relative Value” (rice seedlings [1]; seed soaking 50 mg/L) was 52.6% and the “Shoot Part Relative Value” (rice seedlings [1]; seed soaking 50 mg/L) was 32.3%. The “Total Chlorophyll Content Relative Value” (rice seedlings [1]; seed soaking 50 mg/L) was 9.3%, the “Total Relative Value” (rice seedlings [1]; seed soaking 50 mg/L) was 34.0% and the “Root System Biomass” value (rice seedlings [1]; seed soaking 100 mg/L) was 8.6 mg/plant. The “Shoot Part Biomass” value (rice seedlings [1]; seed soaking 100 mg/L) was 78.4 mg/plant, the “Total Biomass” value (rice seedlings [1]; seed soaking 100 mg/L) was 87.1 mg/plant and the “Total Chlorophyll Content” value (rice seedlings [1]; seed soaking 100 mg/L) was 3.98 mg/g. The “Root System Relative Value” (rice seedlings [1]; seed soaking 100 mg/L) was 58.2%, the “Shoot Part Relative Value” (rice seedlings [1]; seed soaking 100 mg/L) was 28.5% and the “Total Chlorophyll Content Relative Value” (rice seedlings [1]; seed soaking 100 mg/L) was 6.7%. The “Total Relative Value” (rice seedlings [1]; seed soaking 100 mg/L) was 31.0%, the “Root System Biomass” value (rice seedlings [1]; seed soaking 200 mg/L) was 7.8 mg/plant and the “Shoot Part Biomass” value (rice seedlings [1]; seed soaking 200 mg/L) was 81.1 mg/plant. The “Total Biomass” value (rice seedlings [1]; seed soaking 200 mg/L) was 88.9 mg/plant, the “Total Chlorophyll Content” value (rice seedlings [1]; seed soaking 200 mg/L) was 3.99 mg/g and the “Root System Relative Value” (rice seedlings [1]; seed soaking 200 mg/L) was 42.9%. For the same compound, the “Shoot Part Relative Value” (rice seedlings [1]; seed soaking 200 mg/L) was 32.9%, the “Total Chlorophyll Content Relative Value” (rice seedlings [1]; seed soaking 200 mg/L) was 7.0% and the “Total Relative Value” (rice seedlings [1]; seed soaking 200 mg/L) was 33.7%. For the same compound, the “effect on biomass of the shoot parts and chlorophyll content, comparison of seed soaking concentrations” value (rice seedlings [1]; seed soaking concentration 50 mg/L) was “best effect”, the “Root System Biomass” value (rice seedlings [2]; [3]) was 7.5 mg/plant and the “Shoot Part Biomass” value (rice seedlings [2]; [3]) was 82.9 mg/plant. For the same compound, the “Total Biomass” value (rice seedlings [2]; [3]) was 90.4 mg/plant, the “Total Chlorophyll Content” value (rice seedlings [2]; [3]) was 4.77 mg/g and the “Root System Relative Value” (rice seedlings [2]; [3]) was 36.8%. The “Shoot Part Relative Value” (rice seedlings [2]; [3]) was 35.9%, the “Total Chlorophyll Content Relative Value” (rice seedlings [2]; [3]) was 27.8% and the “Total Relative Value” (rice seedlings [2]; [3]) was 36.0%. For the same compound, the “Root System Biomass” value (rice seedlings [2]; [4]) was 8.0 mg/plant, the “Shoot Part Biomass” value (rice seedlings [2]; [4]) was 79.8 mg/plant and the “Total Biomass” value (rice seedlings [2]; [4]) was 87.9 mg/plant. The “Total Chlorophyll Content” value (rice seedlings [2]; [4]) was 4.29 mg/g, the “Root System Relative Value” (rice seedlings [2]; [4]) was 46.7% and the “Shoot Part Relative Value” (rice seedlings [2]; [4]) was 30.8%. For the same compound, the “Total Chlorophyll Content Relative Value” (rice seedlings [2]; [4]) was 15.0%, the “Total Relative Value” (rice seedlings [2]; [4]) was 32.1% and the “Root System Biomass” value (rice seedlings [2]; [5]) was 8.3 mg/plant. The “Shoot Part Biomass” value (rice seedlings [2]; [5]) was 76.3 mg/plant, the “Total Biomass” value (rice seedlings [2]; [5]) was 84.6 mg/plant and the “Total Chlorophyll Content” value (rice seedlings [2]; [5]) was 3.82 mg/g. For the same compound, the “Root System Relative Value” (rice seedlings [2]; [5]) was 52.2%, the “Shoot Part Relative Value” (rice seedlings [2]; [5]) was 25.0% and the “Total Chlorophyll Content Relative Value” (rice seedlings [2]; [5]) was 2.5%. For the same compound, the “Total Relative Value” (rice seedlings [2]; [5]) was 27.2%, the “Root System Biomass” value (rice seedlings [2]; [6]) was 6.3 mg/plant and the “Shoot Part Biomass” value (rice seedlings [2]; [6]) was 62.9 mg/plant. The “Total Biomass” value (rice seedlings [2]; [6]) was 69.2 mg/plant, the “Total Chlorophyll Content” value (rice seedlings [2]; [6]) was 4.51 mg/g and the “Root System Relative Value” (rice seedlings [2]; [6]) was 15.6%. The “Shoot Part Relative Value” (rice seedlings [2]; [6]) was 3.1%, the “Total Chlorophyll Content Relative Value” (rice seedlings [2]; [6]) was 20.8% and the “Total Relative Value” (rice seedlings [2]; [6]) was 4.1%. For the same compound, the “Root System Biomass” value (rice seedlings [2]; [7]) was 7.0 mg/plant, the “Shoot Part Biomass” value (rice seedlings [2]; [7]) was 74.5 mg/plant and the “Total Biomass” value (rice seedlings [2]; [7]) was 81.5 mg/plant. The “Total Chlorophyll Content” value (rice seedlings [2]; [7]) was 4.15 mg/g, the “Root System Relative Value” (rice seedlings [2]; [7]) was 27.7% and the “Shoot Part Relative Value” (rice seedlings [2]; [7]) was 22.1%. The “Total Chlorophyll Content Relative Value” (rice seedlings [2]; [7]) was 11.2%, the “Total Relative Value” (rice seedlings [2]; [7]) was 22.6% and the “Root System Biomass” value (rice seedlings [2]; [8]) was 8.0 mg/plant. The “Shoot Part Biomass” value (rice seedlings [2]; [8]) was 79.9 mg/plant, the “Total Biomass” value (rice seedlings [2]; [8]) was 87.9 mg/plant and the “Total Chlorophyll Content” value (rice seedlings [2]; [8]) was 4.09 mg/g. For the same compound, the “Root System Relative Value” (rice seedlings [2]; [8]) was 46.3%, the “Shoot Part Relative Value” (rice seedlings [2]; [8]) was 30.9% and the “Total Chlorophyll Content Relative Value” (rice seedlings [2]; [8]) was 9.8%. The “Total Relative Value” (rice seedlings [2]; [8]) was 32.2%, the “Root System Biomass” value (rice seedlings [2]; [9]) was 7.7 mg/plant and the “Shoot Part Biomass” value (rice seedlings [2]; [9]) was 79.6 mg/plant. The “Total Biomass” value (rice seedlings [2]; [9]) was 87.3 mg/plant, the “Total Chlorophyll Content” value (rice seedlings [2]; [9]) was 3.82 mg/g and the “Root System Relative Value” (rice seedlings [2]; [9]) was 41.6%. For the same compound, the “Shoot Part Relative Value” (rice seedlings [2]; [9]) was 30.4%, the “Total Chlorophyll Content Relative Value” (rice seedlings [2]; [9]) was 2.3% and the “Total Relative Value” (rice seedlings [2]; [9]) was 31.3%. The “Root System Biomass” value (rice seedlings [2]; [10]) was 5.4 mg/plant, the “Shoot Part Biomass” value (rice seedlings [2]; [10]) was 70.1 mg/plant and the “Total Biomass” value (rice seedlings [2]; [10]) was 75.5 mg/plant. For the same compound, the “Total Chlorophyll Content” value (rice seedlings [2]; [10]) was 3.89 mg/g, the “Root System Relative Value” (rice seedlings [2]; [10]) was −0.7% and the “Shoot Part Relative Value” (rice seedlings [2]; [10]) was 14.8%. The “Total Chlorophyll Content Relative Value” (rice seedlings [2]; [10]) was 4.2%, the “Total Relative Value” (rice seedlings [2]; [10]) was 13.6% and the “Root System Biomass” value (rice seedlings [2]; [11]) was 8.6 mg/plant. The “Shoot Part Biomass” value (rice seedlings [2]; [11]) was 82.7 mg/plant, the “Total Biomass” value (rice seedlings [2]; [11]) was 91.3 mg/plant and the “Total Chlorophyll Content” value (rice seedlings [2]; [11]) was 4.03 mg/g. For the same compound, the “Root System Relative Value” (rice seedlings [2]; [11]) was 51.8%, the “Shoot Part Relative Value” (rice seedlings [2]; [11]) was 35.4% and the “Total Chlorophyll Content Relative Value” (rice seedlings [2]; [11]) was 8.1%. For the same compound, the “Total Relative Value” (rice seedlings [2]; [11]) was 37.3%, the “Root System Biomass” value (rice seedlings [2]; [12]) was 7.9 mg/plant and the “Shoot Part Biomass” value (rice seedlings [2]; [12]) was 85.8 mg/plant. For the same compound, the “Total Biomass” value (rice seedlings [2]; [12]) was 93.7 mg/plant, the “Total Chlorophyll Content” value (rice seedlings [2]; [12]) was 4.32 mg/g and the “Root System Relative Value” (rice seedlings [2]; [12]) was 44.7%. For the same compound, the “Shoot Part Relative Value” (rice seedlings [2]; [12]) was 40.6%, the “Total Chlorophyll Content Relative Value” (rice seedlings [2]; [12]) was 15.9% and the “Total Relative Value” (rice seedlings [2]; [12]) was 41.0%. For the same compound, the “Root System Biomass” value (rice seedlings [2]; [13]) was 7.1 mg/plant, the “Shoot Part Biomass” value (rice seedlings [2]; [13]) was 74.7 mg/plant and the “Total Biomass” value (rice seedlings [2]; [13]) was 81.8 mg/plant. The “Total Chlorophyll Content” value (rice seedlings [2]; [13]) was 4.20 mg/g, the “Root System Relative Value” (rice seedlings [2]; [13]) was 30.2% and the “Shoot Part Relative Value” (rice seedlings [2]; [13]) was 22.4%. The “Total Chlorophyll Content Relative Value” (rice seedlings [2]; [13]) was 12.7%, the “Total Relative Value” (rice seedlings [2]; [13]) was 23.1% and the “Root System Biomass” value (rice seedlings [2]; [14]) was 7.1 mg/plant. The “Shoot Part Biomass” value (rice seedlings [2]; [14]) was 63.5 mg/plant, the “Total Biomass” value (rice seedlings [2]; [14]) was 70.6 mg/plant and the “Total Chlorophyll Content” value (rice seedlings [2]; [14]) was 3.79 mg/g. The “Root System Relative Value” (rice seedlings [2]; [14]) was 29.7%, the “Shoot Part Relative Value” (rice seedlings [2]; [14]) was 4.1% and the “Total Chlorophyll Content Relative Value” (rice seedlings [2]; [14]) was 1.6%. The “Total Relative Value” (rice seedlings [2]; [14]) was 6.2%.
